# Experimental data: US20100286082A1, “RIBOSWITCHES AND METHODS AND COMPOSITIONS FOR USE OF AND WITH RIBOSWITCHES” (Yale University, priority 2007, published 2010)
# “And” between values parts separate entries of the source, which are not always exact repeats. Equal entries are not always repeated.
# What was measured:
# [1] = biological target: 132 Sc RNA (SAM-IV riboswitch); assay: In-line probing of 132 Sc RNA (SAM-IV); format: binding, Streptomyces coelicolor
# Source text: DNA corresponding to the aptamer in the pEZ35 plasmid (above) was amplified by PCR with primers 5′-[…]
# [2] = biological target: SAM-I riboswitch 124 yitJ; assay: SAM-I riboswitch binding (literature); details: ratio of the KD for the compound to that for SAM
# [3] = biological target: SAM-II aptamer 156 metA; details: Corbino et al., 2005; read-out: apparent KD for SAM; cited from earlier work
# [4] = biological target: SAM-I riboswitch 124 yitJ; details: calculated previously (Lim et al. 2006); read-out: KD [compound] (nM) SAM-I; cited from earlier work
# [5] = system: 68 metH RNA; assay: Equilibrium dialysis of [3H]SAM with 68 metH RNA; format: binding, Dechloromonas aromatica
# Procedure: (§1) The chambers were separated by a permeable membrane with a molecular weight cut-off of 5000 Daltons.
# (§2) Equilibrium dialysis was performed by delivering 20 μl samples to each side of a Dispo-Equilibrium Biodialyzer (The Nest Group, Inc., Southboro, Mass., USA) wherein the separation between chambers is maintained by a dialysis membrane with a 5000 Dalton molecular weight cut-off. One chamber contained a buffer solution comprised of 100 mM Tris-HCl (pH 8.3 at 24° C.), 20 mM MgCl2, 100 mM KCl, plus 100 nM [^3H]SAM.
# [6] = system: 68 metH RNA; assay: In-line probing of 68 metH RNA (SAH aptamer); format: binding, Dechloromonas aromatica; details: for modulation of the RNA structure: concentrations as high as 1 mM
# Procedure: iii. In-Line Probing Analysis In-line probing assays were carried out essentially as previously described (Soukup and Breaker, 1999). 5′^32P-labeled RNAs were incubated at room temperature for approximately 40 h in 10 μl volumes containing 50 mM Tris-HCl (pH 8.3 at 25° C.), 20 mM MgCl2, 100 mM KCl, and included test compounds at the concentrations indicated. Spontaneous cleavage products were separated by denaturing 10% PAGE, visualized using a Phosphorlmager (Molecular Dynamics), and quantified using SAFA v1.1 software (Das et al., 2005). The amount of RNA cleaved at each nucleotide position was obtained from SAFA analysis, which automatically determines reference nucleotide positions with invariant levels of spontaneous cleavage to correct for different amounts loaded in each lane. Individual band intensities at each modulated site were summed and normalized to obtain values for the fraction of RNA that was structurally modulated, assuming that there was no modulation in the absence of ligand and maximal modulation in the presence of the highest concentration of ligand. Values for the apparent dissociation constant (KD) were determined by fitting the plot of the fraction modulated (F), versus the ligand concentration, [L], at all three indicated modulation sites to the equation F [L]/([L]+KD) using SigmaPlot 9 software (Systat Software, Inc.).
# [7] = Kinetics of cyclic di-GMP degradation under in-line probing conditions; format: physicochemical; details: in-line probing buffer, pH 8.3 at 23° C., 100 mM KCl, 20 mM MgCl2
# Procedure: A solution of 500 μM cyclic di-GMP was incubated in the presence of in-line probing buffer (50 mM Tris-HCl [pH 8.3 at 23° C.], 100 mM KCl, 20 mM MgCl2) for varying amounts of time. The reactions were initiated by the addition of cyclic di-GMP and quenched when a 10 μL aliquot was injected onto an Agilent Technologies 1200 series HPLC equipped with an Agilent Zorbax Oligo column (5 μM, 6.2 mm×80 mm). The compounds were eluted using a gradient mobile phase composed of 95% 0.1 M NaHPO4 [pH 6.0 at 23° C.] and 5% acetonitrile to 100% 1 M NaCl. The absorbance was monitored at 254 nm. A rate constant for cyclic di-GMP was established by plotting the natural logarithm of the fraction of the cyclic di-GMP remaining uncleaved versus time, wherein the negative slope of the resulting line reflects the rate constant.
# [8] = biological target: Escherichia coli PilZ protein domain (Escherichia coli, UniProt P76010); details: Ryjenkov 2006; cited from earlier work
# [9] = biological target: 110 Vc2 RNA (Vc2 aptamer, GEMM RNA); assay: In-line probing of 110 Vc2 RNA (cyclic di-GMP aptamer); format: binding, Vibrio cholerae
# Procedure: In-line probing assays were performed using methods similar to those described previously (Soukup 1999). Briefly, 5′^32P-labeled RNAs (˜[…] for cyclic di-GMP KD analysis, ˜5 nM for all other analyses) were incubated at 23° C. for approximately 40 hours in 20 mM MgCl2, 100 mM KCl, and 50 mM Tris (pH 8.3 at 23° C.) with the indicated compounds. RNA cleavage products were separated by denaturing 10% PAGE, visualized using a Phosphorimager (Molecular Dynamics), and analyzed using SAFA v1.1 software (Das 2005) or ImageQuant (Molecular Dynamics). SAFA software was used to normalize to correct for differences in the amounts of RNA loaded to each lane and to determine the intensity of each band.
# To determine the KD of 110 Vc2 for cyclic di-GMP, in-line probing was conducted as described above with various concentrations of cyclic di-GMP. Due to the use of an exceptionally low concentration of radiolabeled 110 Vc2 RNA, the samples loaded were supplemented with additional unlabeled RNA that had been separately subjected to in-line probing. […] Dissociation constants (KD) were determined using ImageQuant software (Molecular Dynamics) to compare individual band intensities at sites of structural modulation assuming that there was no modulation in the absence of ligand and complete modulation in the presence of the highest ligand concentration tested. […]
# [10] = system: SAM-II aptamer 156 metA; details: 10 µM RNA, 100 nM [3H]SAM
# Procedure: as §1, §2
# [11] = system: 17-90 RNA; assay: In-line probing of 17-90 RNA (preQ1-II aptamer); format: binding, Streptococcus pneumoniae R6; details: for binding by 17-90 RNA: compound concentrations up to 1 mM; for Kd: read-out: apparent KD
# [12] = system: wild-type 149 moaA RNA (Moco RNA)-lacZ reporter fusion; assay: β-galactosidase reporter assay of 149 moaA RNA fusion; format: cell-based, Escherichia coli; details: modC deletion strain, LB supplemented with 10 mM compound
# Source text: These sequences were cloned into a translational fusion plasmid upstream of, and in-frame with β-galactosidase reporter gene. The fusion was placed under the control of a constitutively active lacUV5 promoter to eliminate the effects of upstream anaerobic- and molybdate-dependent promoter regulation that naturally restricts expression of the moaA operon. This series of plasmids was placed in a strain of E. coli wherein the moaA gene was deleted. The resulting transformants were transformed with a plasmid containing the moaABCDE operon under the control of an arabinose-inducible and glucose-repressible promoter (Guzman et al., 1995). These doubly transformed strains enabled us to determine the role of the 149 moaA RNA on reporter gene expression when Moco concentrations are either high or low.
# To determine whether molybdate is critical for gene regulation by 149 moaA RNA, a modC knockout strain of E. coli was conducted to eliminate high affinity molybdate transporter function. This strain was then transformed with the moaABCDE inducible expression plasmid and the wild-type and mutant 149 moaA reporter fusion plasmids.
# To measure gene expression from lacZ in the wild-type and mutant reporter strains of E. coli, the cells were grown in a 14 mL culture vial with shaking overnight at 37° C. in 3 mL of LB with supplementation as indicated. […]
# Escherichia coli PilZ protein domain, sequence (P76010 whole entry, the tested form may be a part): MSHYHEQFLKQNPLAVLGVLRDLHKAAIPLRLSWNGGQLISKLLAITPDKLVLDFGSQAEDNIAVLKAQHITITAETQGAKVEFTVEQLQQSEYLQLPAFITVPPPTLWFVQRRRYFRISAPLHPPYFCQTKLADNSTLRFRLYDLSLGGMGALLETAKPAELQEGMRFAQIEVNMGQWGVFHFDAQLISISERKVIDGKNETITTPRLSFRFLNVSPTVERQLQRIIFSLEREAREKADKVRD
smiles,measurement,setting,value
"C[S+](CC[C@H](N)C(=O)[O-])C[C@H]1O[C@@H](n2cnc3c(N)ncnc32)[C@H](O)[C@@H]1O (stereo partly drawn) [SAM, S-adenosyl-L-methionine]",Kd,"[1]; in-line probing, 132 Sc RNA, read-out: KD [compound] (nM) SAM-IV",150 nM and ~150 nM
same,KD [compound]/ KD [SAM] SAM-IV,[1]; ratio of the KD for the compound to that for SAM,1
same,KD [compound]/ KD [SAM] SAM-I,[2],1
same,Kd,[3],~1000 nM
same,Kd,[4],5 nM
same,discrimination against SAM,[5]; SAH versus SAM,~3 orders of magnitude
same,Kd,"[5]; equilibrium dialysis, 25 μM 68 metH RNA",≥ 25000 nM
same,apparent KD relative to apparent KD for SAH,"[6]; in-line probing, commercial SAM (contains ~10% SAH)",no more than 10 fold
Nc1nc2c(ncn2[C@@H]2O[C@@H]3COP(=O)(O)O[C@H]4[C@@H](O)[C@H](n5cnc6c(=O)[nH]c(N)nc65)O[C@@H]4COP(=O)(O)O[C@H]3[C@H]2O)c(=O)[nH]1 [cyclic di-GMP],rate constant for spontaneous cleavage,[7],3.2e-06 min⁻¹
same,Kd,[8],840 nM
same,Kd,"[9]; in-line probing with various cyclic di-GMP concentrations, read-out: apparent dissociation constant (KD)",~1 nM
"C[S+](CC[C@H](N)C(=O)O)C[C@H]1O[C@@H](n2cnc3c(N)ncnc32)[C@H](O)[C@@H]1O (stereo partly drawn) [[^3H]SAM, S-(5′-adenosyl)-L-methionine-(methyl-3H)]",shift of the distribution of [3H]SAM to the RNA chamber,"[5]; 10 µM RNA, 100 nM [3H]SAM",no shift
same,shift of the distribution of [3H]SAM to the RNA chamber,[10],~1.5 fold
Cn1cnc2nc(N)[nH]c(=O)c21 [7-methylguanine],binding by 17-90 RNA,[11],lack of 7-methylguanine binding
Nc1nc2c(ncn2[C@@H]2O[C@H](COP(=O)(O)O)[C@@H](O)[C@H]2O)c(=O)[nH]1 [pG],binding by the aptamer,[9]; concentration five orders of magnitude higher than the KD for cyclic di-GMP,not bound by the aptamer
N[C@@H](CCS)C(=O)O [homocysteine],modulation of the RNA structure,[6],neither homocysteine nor methionine cause any modulation of the RNA structure
Nc1nc2c(c(=O)[nH]1)CC=N2 [7-deazaguanine],binding by 17-90 RNA,[11],bound with only a slightly better affinity
[Na+].[Na+].[O]=[Mo](=[O])([O-])[O-] [sodium molybdate],reporter gene expression of WT 149 moaA reporter fusion,[12],expression is repressed
"CSCC[C@H](N)C(=O)O [methionine, L-methionine]",modulation of the RNA structure,[6],neither homocysteine nor methionine cause any modulation of the RNA structure
[Na+].[Na+].[O]=[W](=[O])([O-])[O-] [sodium tungstate],reporter gene expression of WT 149 moaA reporter fusion,[12],becomes derepressed
"CN(C)Cc1c[nH]c2nc(N)[nH]c(=O)c12 [dimethylaminomethyl analog, 7-(N,N″-dimethylaminomethyl)-7-deazaguanine]",Kd,[11],~500 nM
"N#CC1C=Nc2nc(N)[nH]c(=O)c21 (stereo not drawn) [preQ0, 7-cyano-7-deazaguanine]",Kd,[11],~500 nM
"Nc1ncnc2c1ncn2[C@@H]1O[C@H](CSC[C@H](N)C(=O)O)[C@@H](O)[C@H]1O [SAC, S-adenosylcysteine]",loss of affinity relative to SAH,[6]; in-line probing,only a modest loss of affinity
Nc1ncc2[nH]cnc2n1 [2-aminopurine],binding by 17-90 RNA,[11],no binding is detected
